From patent US11077196B2, “Abuse-deterrent pharmaceutical composition” (priority 2016, dated 2021)
Entries after “also recorded” stand apart in the source; their conditions may differ.

Legend:
laccase [1] = experiment: LMS and methadone: oxygen measurements; format: biochemical
[2] = biological target: T1, Thermobifida cellulosilytica cutinase 1 (THC) (Thermobifida cellulosilytica, UniProt E9LVH8); format: biochemical
T1 construct: made in house
T1 sequence (E9LVH8 1-262): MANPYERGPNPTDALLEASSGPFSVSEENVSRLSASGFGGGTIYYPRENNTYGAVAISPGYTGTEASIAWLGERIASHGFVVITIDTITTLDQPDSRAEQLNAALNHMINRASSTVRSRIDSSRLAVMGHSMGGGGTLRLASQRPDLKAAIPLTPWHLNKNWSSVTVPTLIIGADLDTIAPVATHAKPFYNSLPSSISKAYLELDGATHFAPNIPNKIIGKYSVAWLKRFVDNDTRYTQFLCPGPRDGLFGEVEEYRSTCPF

[3] = system: Humicola insolens cutinase (HiC); format: biochemical
laccase [4] = experiment: Laccase mediator system (LMS) and oxycodone: oxygen concentration measurement; format: biochemical; conditions: 10 units laccase ml−1, 1000 mgL−1 oxycodone; for oxygen concentration after the addition of oxycodone, per mediator: mediator 2 mM
Description: During the reaction oxygen acts as electron acceptor and is reduced to water by laccases while the mediators are oxidized. The concentration of oxygen was measured as described above. Oxygen is consumed until the mediator is fully oxidized. […] The second step of the reaction is initiated by addition of the target substrate, which is consequently oxidized by the mediators.
In the present experiments the final reaction mixtures contained 0.2 to 6 mM mediator, 1-10 units of laccase per ml and 100-3000 mg L^−1 opioid.
The different mediators were used at concentrations of 2 mM with 10 units laccase ml^−1 and 1000 mgL^−1 oxycodone. The first drop in oxygen concentration represents the oxidation of the respective mediators with the laccase, the second drop—which took place just after the addition of the opioid—was due to the subsequent oxidation of the opioid.

laccase [5] = experiment: LMS and oxycodone: HPLC-MS/TOF measurements; conditions: laccase mediator system
laccase MTL = experiment: Polymerization of morphine with laccase from Myceliophthora thermophila (high concentrations); conditions: 50 mM sodium phosphate buffer pH 7, MTL 10 U to 100 U
laccase [6] = experiment: Thin layer chromatography of enzymatic conversion; format: biochemical; conditions: samples at 2, 10, 30, 60, 120 minutes of enzymatic reaction
[7] = system: horseradish peroxidase and a laccase originating from Myceliophthora thermophila (MtL); experiment: Inactivation of oxycodone with an enzyme system consisting of peroxidase/laccase; format: biochemical; conditions: HRP 10 U/ml, Glucose Oxidase 20 U/ml, Laccase 25 U/ml, Oxycodone 10 mg/ml, Glucose 10 mg/ml, distilled water, room temperature
Text: In the present example, the development of an appropriate enzyme system to eliminate opioids from solution can be shown. A peroxidase is used to produce an hydroxyl group in oxycodone while the such “activated” molecule is further transformed by the laccase. Moreover, optimized reaction conditions for effective conversion of the opioid solution preventing administration through injection are provided. Finally, the function of the system is verified by showing the inactivation of the opioid destroying enzymes proteolytically when the drugs are administered as foreseen.
To achieve the elimination of oxycodone, the following enzymes are used: the horseradish peroxidase and a laccase originating from Myceliophthora thermophila (MtL). Glucose Oxidase (GOD, from Aspergillus niger) is used to generate H2O2 which is required for the peroxidase reaction.
To determine whether the laccase act on activated oxycodone an optical oxygen sensor is used. Laccases use oxygen as electron acceptor, consequently the oxygen concentration decreases upon substrate oxidation.
500 μL samples are taken and put into 500 μL of methanol (MeOH) to precipitate the enzyme. The solution is centrifuged using Vivaspin 500 and transferred to an HPLC vial.

[8] = system: laccase from Myceliophthora thermophila (MtL); experiment: Oxygen measurement of laccase catalysed oxidation of opioids (MtL); format: biochemical; conditions: MtL 10 U/ml, substrate 2 mg/ml, distilled water, room temperature, optical oxygen sensor
Description: (§1) Two different laccases were used to achieve elimination of opioids—one of them originated from Trametes villosa (TvL), the other one from Myceliophthora thermophila (MtL).

[9] = system: laccase from Trametes villosa (TvL); experiment: Oxygen measurement of laccase catalysed oxidation of opioids (TvL); format: biochemical; conditions: TvL 10 U/ml, substrate 2 mg/ml, distilled water, room temperature, optical oxygen sensor
Description: as §1

pepsin = biological target: T2, pepsin (Sus scrofa, UniProt P00791); experiment: Pepsin digestion assay in simulated gastric fluid with SDS-PAGE analysis; format: in vitro ADME; conditions: SGF pH 1.2 with pepsin, 10000 Units pepsin per 1 mg test protein, 37° C., samples at 0, 0.5, 15 minutes
T2 construct: purchased Sigma-Aldrich (US) P7000
Description: SGF contains 0.084 M HCl, 0.035 M NaCl, 4000 U of pepsin per reaction mixture and has a pH level of 1.2 according to the United States Pharmacopeia (1995). A ratio of 10000 Units of pepsin activity to 1 mg of test protein was used throughout the assay, which is based on an evaluation of the average activity of pepsin recommended in the United States Pharmacopeia (24th edition, 2000) with some modifications. Pepsin (ref. #P7000) was purchased from Sigma-Aldrich (US). All proteins that were used were dissolved in 50 mM Tris-HCl (pH 9.5) at a concentration of 5 mg mL^−1. The reaction mixture contained 1.52 mL of SGF preheated to 37° C. before the addition of 0.08 mL of protein solution (Thomas et al., 2004). The mixture was placed into a thermomixer at 37° C. and was shaken at 400 rpm. For denaturating SDS-polyacrylamide gel electrophoresis analysis (SDS-PAGE) samples of 160 μl were removed at 0 minutes, 0.5 minutes, and 15 minutes after initiation.
SDS-PAGE was performed to analyze and visually inspect stained protein bands whether the protein band is still intact or fragmented after the digestion assay. […]
Each 160 μl of the digestion samples was quenched by adding 56 μl of 200 mM NaHCO3 as neutralization step and 56 μl 4× Laemmli (Laemmli 1970) buffer for electrophoresis. Samples were immediately heated up to 99° C. for 10 minutes and analyzed directly or stored at −20° C. […]

T2 sequence (P00791 60-385): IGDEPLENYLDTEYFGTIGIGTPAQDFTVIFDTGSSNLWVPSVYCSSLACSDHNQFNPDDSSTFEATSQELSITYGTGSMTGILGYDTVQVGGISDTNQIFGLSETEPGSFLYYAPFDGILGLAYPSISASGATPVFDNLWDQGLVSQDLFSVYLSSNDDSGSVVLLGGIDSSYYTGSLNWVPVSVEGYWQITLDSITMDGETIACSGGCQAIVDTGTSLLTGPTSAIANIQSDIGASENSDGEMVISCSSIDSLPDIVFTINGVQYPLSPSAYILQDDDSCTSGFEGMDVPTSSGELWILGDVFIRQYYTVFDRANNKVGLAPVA

CCC(=O)C(CC(C)N(C)C)(c1ccccc1)c1ccccc1 (racemic) [methadone, (±)-6-dimethylamino-4,4-diphenol-3-heptanone]
oxygen concentration in LMS with methadone (laccase [1]; mediator ABTS): decline in oxygen concentration

CCn1c(=NN=c2sc3cc(S(=O)(=O)O)ccc3n2CC)sc2cc(S(=O)(=O)O)ccc21 [ABTS, 2,2′-azino-bis-(3-ethylbenzthiazoline-6-sulfonic acid)]
effect of the mediator in LMS with methadone (oxygen measurement) (laccase [1]; mediators tested incl. syringic acid, TEMPO, syringol, ABTS): best effect

CC(=O)Oc1ccc2c3c1O[C@H]1[C@@H](OC(C)=O)C=C[C@H]4[C@@H](C2)N(C)CC[C@@]341 [diacetylmorphine]
DAM concentration [2]: declines
morphine concentration formed from DAM [2]: only increased in the samples that were incubated at 50 °C
product formed from DAM at lower temperatures [2]: only monoacetylmorphine is produced
diacetylmorphine hydrolyzed (total acetate yield, HPLC/RI) ([2]; pH 7): more than 50%
DAM concentration [3]: declines
morphine concentration formed from DAM [3]: only increased in the samples that were incubated at 50 °C
product formed from DAM at lower temperatures [3]: only monoacetylmorphine is produced
diacetylmorphine hydrolyzed (total acetate yield, HPLC/RI) ([3]; pH 7): more than 50%

CCOc1cc(C=O)ccc1O [ethylvanillin]
oxygen concentration after the addition of oxycodone, per mediator (laccase [4]): showed a drop in oxygen concentration

O=C(O)c1cc(O)c(O)c(O)c1 [gallic acid]
effect of the mediator on oxycodone (MS-TOF analysis) (laccase [5]): no apparent effect
oxygen concentration after the addition of oxycodone, per mediator (laccase [4]): no apparent effect

CN1CC[C@]23c4c5ccc(O)c4O[C@H]2[C@@H](O)C=C[C@H]3[C@H]1C5 [morphine, 4,5[alpha]-epoxy-17-methyl-7-morphinen-3,6[alpha]-diol]
faster degradation of morphine with 10 times more laccase (laccase MTL): ~10 times
time after which new dots appear on the TLC plate (new product formed) (laccase [6]): 2 min

COc1ccc2c3c1O[C@H]1C(=O)CC[C@@]4(O)[C@@H](C2)N(C)CC[C@]314 [oxycodone, 4,5[alpha]-epoxy-14-hydroxy-3-methoxy-17-methyl-6-morphinanone]
enzymatic conversion of oxycodone (oxygen consumption measurements, HPLC-MS) [7]: successfully converted; also recorded: converted to a product which precipitated
oxycodone concentration (HPLC-MS/TOF) (laccase [5]; mediators 2 mM, vanillin also 6 mM): decrease in oxycodone concentration
oxidation of oxycodone in the laccase mediator system (laccase [4]; mediators vanillin, ethylvanillin, syringic acid 2 mM): oxidation of oxycodone
oxygen concentration in solution (laccase oxidation of the opioid) [8]: not capable of converting oxycodone
oxygen concentration in solution (laccase oxidation of the opioid) [9]: not capable of converting oxycodone

COc1cc(C(=O)O)cc(OC)c1O [syringic acid]
oxygen concentration after the addition of oxycodone, per mediator (laccase [4]): showed a drop in oxygen concentration

CC[C@@H](c1cccc(O)c1)[C@@H](C)CN(C)C [tapentadol]
time after which new dots appear on the TLC plate (new product formed) (laccase [6]): 2 min
time after which the reference dot disappears on TLC (all converted) (laccase [6]): 120 min
oxygen concentration in solution (laccase oxidation of the opioid) [8]: much slower
oxygen concentration in solution (laccase oxidation of the opioid) [9]: drops to almost 0% oxygen

COc1cc(C=O)ccc1O [vanillin]
oxygen concentration after the addition of oxycodone, per mediator (laccase [4]): showed a drop in oxygen concentration

HRP: horse radish peroxidase
proteolytic degradation of the enzyme (protein band on SDS-PAGE) (pepsin): very susceptible to proteolytic degradation
